Experiments:
[1] = particle size distribution measurement by laser diffraction; type: physicochemical; conditions: milled active substance
Text: The value X90 refers to the 90% value of the volume distribution measured using a laser diffractometer. In other words, for the purposes of the present invention, the X90 value denotes the particle size below which 90% of the quantity of particles is found based on the volume distribution. Analogously the value X50 refers to the 50% value (median) of the volume distribution measured using a laser diffractometer. In other words, for the purposes of the present invention, the X50 value denotes the particle size below which 50% of the quantity of particles is found based on the volume distribution. Analogously the value X10 refers to the 10% value of the volume distribution measured using a laser diffractometer. In other words, for the purposes of the present invention, the X10 value denotes the particle size below which 10% of the quantity of particles is found based on the volume distribution.
Preferably all X90, X50, X10 values hereinbefore and hereinafter are by volume and determined by laser-diffraction method, in particular low angle laser light scattering, i.e. Fraunhofer diffraction. A preferred test is described in the experimental section. The laser diffraction method is sensitive to the volume of a particle and provides a volume-average particle size, which is equivalent to the weight-average particle size if the density is constant. The skilled artesian knows that the results of the particle size distribution determination by one technique can be correlated with that from another technique, for example on an empirical basis by routine experimentation. Alternatively the particle size distribution in the pharmaceutical composition or dosage form can be determined by microscopy, in particular electron microscopy or scanning electron microscopy.
Particle size distribution measurement is performed for example via light scattering or laser diffraction technique. To determine the particle size the powder is fed into a laser diffraction spectrometer for example by means of a dispersing unit. The test method is described below in detail: • Equipment: Laser Diffraction Spectrometer Sympatec HELOS Particle Sizer. • Lens: R31 (0.5/0.9 μm-175 μm) • Sample Dispersing Unit: Dry disperser RODOS/M • Vacuum: Nilfisk • Feeder: ASPIROS • Feed Velocity: 60.00 mm/s • Primary pressure: 2.00 bar • Injector depression: maximize (mbar)2 • Reference Measurement: 10 seconds • Cycle Time: 100 msec • Trigger Conditions: Start 0.0 seconds after optical concentration ≥1% valid always • Stop after 5.0 seconds optical concentration ≤1% or after 30 seconds real time • Optical Concentration: Approximately range 3-12% • Evaluation: HRLD • Sample Size: Approximately 100 mg • Number of measurements: 2 (duplicate)
The instrument is set up according to the manufacturer's recommendation and using the manufacturer provided software. The sample container is thoroughly mixed and tumbled prior to removing a portion of the sample to ensure that a representative sample is tested. Duplicate samples are prepared by using a spatula to transfer approximately 100 mg of a sample into the ASPIROS glass vials and cap the vials. The capped cials are placed into the feeder.

[2] = total body fat content (FoodScan NIR) in cafeteria-diet obese female Wistar rats; type: in vivo, rat; conditions: 10 mg/kg orally once daily, end of study Day 34, p<0.05
Method: All experimental procedures concerning the use of laboratory animals were carried out under a Home Office Certificate of Designation. An animal model of obesity was used to study the effect of the compound (I.9) on body weight and total body fat content. For this, female Wistar rats were made obese by exposure to a simplified cafeteria diet containing high fat chow, chocolate and ground peanuts for approximately 24 weeks. Following the induction of obesity, rats were given vehicle (0.5% aqueous hydroxyethyl-cellulose) for 7 days and then dosed orally once daily with either vehicle or 3 mg/kg or 10 mg/kg compound (I.9) for 28 days. […] Results are means (adjusted for differences between the body weights of the different treatment groups at baseline (Day 1))±SEM (calculated from the residuals of the statistical model), n=10. […] Body weight data was analysed by analysis of covariance with body weights on Day 1 as covariate. […]
At the end of the study on Day 34 (24 hours after the last treatment on Day 33) all rats were terminated, the body exsanguinated and the following tissues removed: the caudate liver lobe, the pancreas, the left kidney and one soleus muscle. Body composition (body fat, protein and water) was determined using the FoodScan NIR (near infra-red) meat analyser (Foss UK). […] Standard errors of the mean (SEM) are calculated from the residuals of the statistical model. […]

[3] = system: serum uric acid; assay: twelve week study of serum uric acid levels in patients with manifest type 2 diabetes mellitus; type: in vivo, human; conditions: type 2 diabetes patients; for serum uric acid level, 12 weeks: after 12 weeks
Method: In a twelve week study of patients with manifest type 2 diabetes mellitus serum uric acid levels were measured at baseline and every 4 weeks in patients randomized to an administration of the compound (I.9) of 5 mg, 10 mg, or 25 mg or placebo or metformin 2000 mg, daily for 12 weeks.

[4] = system: blood glucose; assay: oral glucose tolerance test in ZDF rats; type: in vivo, rat; conditions: oral glucose load 2 g/kg 30 min later
Method: According to a first example an oral glucose tolerance test is performed in overnight fasted 9-weeks old male Zucker Diabetic Fatty (ZDF) rats (ZDF/Crl-Lepr^fa). A pre-dose blood sample is obtained by tail bleed. Blood glucose is measured with a glucometer, and the animals are randomized for blood glucose (n=5/group). Subsequently, the groups receive a single oral administration of either vehicle alone (0.5% aqueous hydroxyethylcellulose containing 3 mM HCl and 0.015% Polysorbat 80) or vehicle containing the SGLT2 inhibitor. The animals receive an oral glucose load (2 g/kg) 30 min after compound administration. Blood glucose is measured in tail blood 30 min, 60 min, 90 min, 120 min, and 180 min after the glucose challenge. Glucose excursion is quantified by calculating the reactive glucose AUC. The data are presented as mean±SEM. The two-sided unpaired Student t-test is used for statistical comparison of the control group and the active groups.
Compound (I.9) (1-chloro-4-(β-D-glucopyranos-1-yl)-2-[4-((S)-tetrahydrofuran-3-yloxy)-benzyl]-benzene) was orally administered to ZDF rats at doses of 0.3 mg/kg, 3 mg/kg or 30 mg/kg body weight. Compound (I.9) reduced glucose excursion by 15% at 0.3 mg/kg (not significant), by 62% at 3 mg/kg (p<0.001) and by 89% at 30 mg/kg (p<0.001).

[5] = body weight in cafeteria-diet obese female Wistar rats; type: in vivo, rat; conditions: 28 days
Method: All experimental procedures concerning the use of laboratory animals were carried out under a Home Office Certificate of Designation. An animal model of obesity was used to study the effect of the compound (I.9) on body weight and total body fat content. For this, female Wistar rats were made obese by exposure to a simplified cafeteria diet containing high fat chow, chocolate and ground peanuts for approximately 24 weeks. Following the induction of obesity, rats were given vehicle (0.5% aqueous hydroxyethyl-cellulose) for 7 days and then dosed orally once daily with either vehicle or 3 mg/kg or 10 mg/kg compound (I.9) for 28 days. For the duration of the study rats were maintained on the cafeteria diet. Therein “Cpd A” denotes the glucopyranosyl-substituted benzene derivative (I.9) at a dose of 3 mg/kg or 10 mg/kg. Results are means (adjusted for differences between the body weights of the different treatment groups at baseline (Day 1))±SEM (calculated from the residuals of the statistical model), n=10. After 28 day daily oral treatment with the compound (I.9) a reduced body weight compared to the vehicle-treated control group was observed. Body weight data was analysed by analysis of covariance with body weights on Day 1 as covariate. […]

[6] = system: HbA1c; conditions: metformin on its own, in the diabetic; cited from earlier work

SMILES: OC[C@H]1O[C@@H](c2ccc(Cl)c(Cc3ccc(O[C@H]4CCOC4)cc3)c2)[C@H](O)[C@@H](O)[C@@H]1O [Active substance Batch 1]
- X10 (particle size, volume distribution) [1]: 1.8 μm
- X50 (particle size, volume distribution) [1]: 18.9 μm
- X90 (particle size, volume distribution) [1]: 45.3 μm

SMILES: OC[C@H]1O[C@@H](c2ccc(Cl)c(Cc3ccc(O[C@H]4CCOC4)cc3)c2)[C@H](O)[C@@H](O)[C@@H]1O [Active substance Batch 2]
- X10 (particle size, volume distribution) [1]: 1.7 μm
- X50 (particle size, volume distribution) [1]: 12.1 μm
- X90 (particle size, volume distribution) [1]: 25.9 μm

SMILES: OC[C@H]1O[C@@H](c2ccc(Cl)c(Cc3ccc(O[C@H]4CCOC4)cc3)c2)[C@H](O)[C@@H](O)[C@@H]1O [Compound (I.9), 1-chloro-4-(β-D-glucopyranos-1-yl)-2-[4-((S)-tetrahydrofuran-3-yloxy)-benzyl]-benzene]
- total body fat content (weight per rat) in comparison to vehicle-treated animals [2]: significantly lower
- serum uric acid level, baseline ([3]; 5 mg daily group): 5.5 mg/dL
- serum uric acid level, 12 weeks ([3]; 5 mg daily): 5.0 mg/dL
- serum uric acid level, baseline ([3]; 10 mg daily group): 5.3 mg/dL
- serum uric acid level, 12 weeks ([3]; 10 mg daily): 4.7 mg/dL
- serum uric acid level, baseline ([3]; 25 mg daily group): 5.4 mg/dL
- serum uric acid level, 12 weeks ([3]; 25 mg daily): 4.7 mg/dL
- reduction in serum uric acid levels compared to baseline ([3]; all doses (5 mg, 10 mg, 25 mg daily), 12 weeks): 0.5 to 0.7 mg/dL
- reduction of glucose excursion (reactive glucose AUC) ([4]; single oral dose 0.3 mg/kg, not significant): 15%
- reduction of glucose excursion (reactive glucose AUC) ([4]; single oral dose 3 mg/kg, p<0.001): 62%
- reduction of glucose excursion (reactive glucose AUC) ([4]; single oral dose 30 mg/kg, p<0.001): 89%
- reduction of body weight versus vehicle control ([5]; 3 mg/kg orally once daily): 4.1%
- reduction of body weight versus vehicle control ([5]; 10 mg/kg orally once daily, significant (p<0.05)): 6.9%

SMILES: CN(C)C(=N)N=C(N)N [Metformin, reference compound]
- average improvement in the HbA1c value [6]: 1.0-1.5%
- serum uric acid level, baseline ([3]; 2000 mg daily group): 5.6 mg/dL
- change of serum uric acid levels compared to baseline ([3]; 2000 mg daily, 12 weeks): increased
- serum uric acid level, 12 weeks ([3]; 2000 mg daily): 6.2 mg/dL

Source: US12527810B2, “Pharmaceutical composition, methods for treating and uses thereof” (Boehringer Ingelheim International GmbH, priority 2009, dated 2026)
